From publication PMC4932538, “Alkanediamide-Linked Bisbenzamidines Are Promising Antiparasitic Agents” (Pharmaceuticals, 2016)
Like-named read-outs stand apart in the source and are kept apart here.

How the values were obtained:
[1] = system: T. b. rhodesiense KETRi 243 (melarsoprol, pentamidine- and diminazene diaceturate-resistant); test: In vitro antitrypanosomal activity, T.b. rhodesiense KETRI 243; type: cell-based, Trypanosoma brucei rhodesiense; details: Trypanosoma brucei, RHODESIENSE; Table S1; from IC50 of Table 1; read-out: pIC50 T.b. rhod (converted)
Description: (§5) The anti-T. cruzi activity was determined using intracellular amastigote forms of T. cruzi Tulahuen strain C2C4 in rat skeletal myoblasts (L6 cells) as described previously [24]. The anti-L. donovani activity was determined using the amastigotes of L. donovani strain MHOM-ET-67/L82 as described previously [24]. […] The cytotoxicity assays against rat skeletal myoblast L6-cells were performed as described previously [24].

[2] = system: intracellular amastigote forms of T. cruzi Tulahuen strain C2C4 in rat skeletal myoblasts (L6 cells); test: In vitro anti-T. cruzi activity; type: cell-based, Trypanosoma cruzi; details: Trypanosoma cruzi, TULAHUEN, L6; average of at least two determinations
Description: as §5

poly(dA-dT) = test: DNA thermal melting with poly(dA-dT); type: binding; details: 1:5 compound to DNA base pair ratio; mean of at least two determinations
Description: (§1) In addition to the determination of the potency of the synthesized compounds against different strains of cell lines (Table 1), thermal melting experiments of these compounds were also conducted with poly(dA-dT) and calf thymus DNA (Table S1, supplementary file). […] The weaker binding to DNA (lower ΔTm values) compared to pentamidine might be attributed to the lower lipophilicity and higher PSA properties of these compounds since they would be expected to bind less favorably in the less polar environment of the minor grove of DNA as was reported for the aza-analogues of furamidine. […] Therefore, ability of these compounds to act at other potential targets cannot be ruled out.
(§2) The DNA binding affinity of the tested compounds was determined by measuring the change in mid-point of the thermal denaturation curves for a 1:5 compound to DNA base pair ratio as described previously. Each Tm value reported in Table S1 (supplementary file) represents the mean of at least two experimental determinations.

[3] = system: rat skeletal myoblast L6-cells; test: Cytotoxicity against L6 cells; type: cell-based; details: Rattus norvegicus, L6; cytotoxicity; read-out: IC50 L6 Cells
Description: as §5

[4] = system: amastigotes of L. donovani strain MHOM-ET-67/L82; test: In vitro anti-L. donovani activity; type: cell-based, Leishmania donovani; details: Leishmania donovani; average of at least two determinations
Description: as §5

[5] = system: T. b. brucei Lab 110 EATRO (pentamidine-sensitive); test: In vitro antitrypanosomal activity, T.b. brucei Lab 110 EATRO; type: cell-based, Trypanosoma brucei brucei; details: Trypanosoma brucei; Table S1; from IC50 of Table 1; read-out: pIC50 T.b. brucei (converted)
Description: (§6) The in vitro assays with the two isolates of T. brucei were conducted according to previously described procedures [14].

calf thymus DNA = test: DNA thermal melting with calf thymus DNA; type: binding; details: 1:5 compound to DNA base pair ratio; mean of at least two determinations
Description: as §1, §2

[6] = system: P. falciparum K1 (chloroquine-resistant); test: In vitro anti-plasmodial activity, K1; type: cell-based, Plasmodium falciparum; details: Plasmodium falciparum, K1
Description: as §5

[7] = system: T. b. brucei Lab 110 EATRO (pentamidine-sensitive); parameters: method as in PMID 19736009; details: strain Lab 110; average of at least two determinations; cited from earlier work
[8] = parameters: method as in PMID 24036514; details: incubation in vitro with mouse liver microsomes; cited from earlier work
[9] = system: T. b. rhodesiense KETRi 243 (melarsoprol, pentamidine- and diminazene diaceturate-resistant); parameters: method as in PMID 19736009; details: strain KETRI 243; average of at least two determinations; read-out: IC50 T.b. rhod; cited from earlier work
[10] = system: both strains of T. brucei and P. falciparum; test: In vitro potency against both strains of T. brucei and P. falciparum; type: cell-based, Trypanosoma brucei; Plasmodium falciparum; details: range over T.b. brucei, T.b. rhodesiense, P. falciparum NF54 and K1
Description: as §6

[11] = system: T.b. rhodesiense KETRI 2002; test: In vivo trypanocidal activity in mice, KETRI 2002; details: for curing of infected mice: KETRI 2002, i.p., 3 days; for Mean Survival: KETRI 2002, 10, 15, 25 mg/kg/day i.p. for 3 days (all doses)
Description: (§3) The compounds were administered via the intraperitoneal route at doses ranging from 1.0 mg/kg/day to 25.0 mg/kg/day for 3 days unless otherwise noted. Pentamidine was used as the reference compound. All three of the tested compounds were effective in curing mice infected with the Lab 110 EATRO or KETRI 2002 strains at several doses.
(§4) The in vivo studies were conducted according to the procedures described previously.

[12] = system: T.b. rhodesiense KETRI 1992; test: In vivo trypanocidal activity in mice, KETRI 1992; details: KETRI 1992
Pneumocystis = system: Pneumocystis; parameters: method as in PMID 16801410; details: 20 mg/kg and 40 mg/kg, cited from earlier work
hemozoin formation = system: hemozoin formation; parameters: method as in PMID 15115412; details: micromolar concentrations, ex vivo; cited from earlier work
[13] = system: T.b. brucei Lab 110 EATRO; test: In vivo trypanocidal activity in mice, Lab 110 EATRO; details: for curing of infected mice: i.p., 3 days
Description: as §3, §4

[14] = system: T.b. rhodesiense KETRI 2538; test: In vivo trypanocidal activity in mice, KETRI 2538; details: for Mean Survival: KETRI 2538; for curing of infected mice: drug-resistant KETRI 2538, i.p., 3 days
Description: as §3, §4

[15] = system: P. falciparum NF54 (chloroquine-sensitive); test: In vitro anti-plasmodial activity, NF54; type: cell-based, Plasmodium falciparum; details: Plasmodium falciparum, NF54; chloroquine-sensitive strain; read-out: IC50 P. falcip NF54
[16] = human, in vivo; cited from earlier work
[17] = Table S1, from IC50 of Table 1, read-out: pIC50 P. falcip K1 (converted)
[18] = chloroquine-resistant strain, read-out: IC50 P. falcip K1

Compound | IC50 [1] [nM] | IC50 [2] [µM] | Thermal Melting ΔTm Poly(dA-dT) (poly(dA-dT)) [C] | IC50 [3] [µM] | IC50 [4] [µM] | IC50 [5] [nM] | Thermal Melting ΔTm CT-DNA (calf thymus DNA) [C] | IC50 [6, 17] [nM] | IC50 [6, 18] [nM] | IC50 [7] [nM] | IC50 [9] [nM] | IC50 [10] [nM] | curing of infected mice [11] | Mean Survival [11] [days] | Mean Survival ([13]; 1.0 mg/kg/day i.p. for 3 days) [days] | No. of Mice Cured/Total (%) ([13]; 1.0 mg/kg/day i.p. for 3 days) | Mean Survival ([13]; 2.5 mg/kg/day i.p. for 3 days) [days] | No. of Mice Cured/Total (%) ([13]; 2.5 mg/kg/day i.p. for 3 days) | Mean Survival ([13]; 5 mg/kg/day i.p. for 3 days) [days] | Mean Survival ([13]; 10 mg/kg/day i.p. for 3 days) [days] | other results
NC(=NO)c1ccc(NC(=O)CCCC(=O)Nc2ccc(C(N)=NO)cc2)cc1 [Compound 4] | 10000 | > 100 | 0.0 | > 100 | > 100 | 7290 | 0.7 | 3160 | 3160 | 7300 | – | – | – | – | – | – | – | – | – | – | metabolism of the amidoxime moiety to the amidine function [8]: readily metabolized
N=C(N)c1ccc(NC(=O)CCCC(=O)Nc2ccc(C(=N)N)cc2)cc1 [Compound 5] | 95.9 | > 100 | 11.4 | 69 | > 100 | 8.99 | 5.6 | 2 | 2 | 9 | 96 | 1 to 96 | highly effective | >30 | 6.0 | 0/3 | 11.3 | 0/3 | 10 | >30 | Mean Survival ([12]; 10 mg/kg/day i.p. for 3 days): 17.5 days; No. of Mice Cured/Total (%) ([12]; 10 mg/kg/day i.p. for 3 days): 0/3; Mean Survival ([12]; 15 mg/kg/day i.p. for 3 days): 14.5 days; No. of Mice Cured/Total (%) ([12]; 15 mg/kg/day i.p. for 3 days): 0/3; Mean Survival ([12]; 25 mg/kg/day i.p. for 3 days): 25 days; No. of Mice Cured/Total (%) ([12]; 25 mg/kg/day i.p. for 3 days): 0/3; survival versus pentamidine treated mice (Pneumocystis; same doses of pentamidine): improved survival curves; reductions in burden (Pneumocystis): > 1000 fold; interference with hemozoin formation (hemozoin formation): interfere with hemozoin formation; Mean Survival ([13]; 15 mg/kg/day i.p. for 3 days): >30 days; curing of infected mice [13]: highly effective; Mean Survival ([14]; 10, 15, 25 mg/kg/day i.p. for 3 days (all doses)): >30 days; curing of infected mice [14]: highly efficacious; IC50 [15]: 2 nM
N=C(N)c1ccc(NC(=O)CCCCC(=O)Nc2ccc(C(=N)N)cc2)cc1 [Compound 6] | 2 | > 100 | 14.4 | > 100 | > 100 | 3 | 8.7 | 18 | 18 | 3 | 2 | 1 to 96 | highly effective | >30 | 6.7 | 0/3 | 10.0 | 0/3 | >30 | >30 | Mean Survival ([13]; 15 mg/kg/day i.p. for 3 days): >30 days; curing of infected mice [13]: highly effective; Mean Survival ([14]; 5, 10, 15 mg/kg/day i.p. for 3 days (all doses)): >30 days; curing of infected mice [14]: highly efficacious; IC50 [15]: 4 nM
CONC(=N)c1ccc(-c2ccc(-c3ccc(C(=N)NOC)cc3)o2)cc1.O=C(O)/C=C\C(=O)O [parafuramidine maleate] | – | – | – | – | – | – | – | – | – | – | – | – | – | – | – | – | – | – | – | – | toxicity that halted development [16]: nephrotoxicity
